For one test, the target named is T1, MT1-MMP hemopexin domain (Homo sapiens, UniProt P50281).
T1 construct: residues Cys319-Gly511 from the human gene; His6 (N); made in house; host or cells: HEK293 cells (transient, pEXPR-IBA42 vector)
The test can be described thus: Fluorescence polarisation competition binding assay. The source says: The MT1-MMP hemopexin-like repeats (also known as the MT1-MMP hemopexin domain), residues Cys319-Gly511 from the human gene, were transiently expressed in HEK293 cells as secreted N-terminally His6-tagged soluble protein, using the pEXPR-IBA42 (IBA) expression vector. Following expression, the protein was purified by Nickel-NTA affinity chromatography followed by gel filtration, and purity was checked by SDS-PAGE. Batch to batch variability was also monitored by fluorescence thermal shift experiments in the presence/absence of a hemopexin domain binding bicycle.
(§1) Binding affinity was measured using competition assays using Fluorescence Polarisation (anisotropy).
Fluoresceination may be performed on the N-terminal amino group of the peptide, which is separated from the bicycle core sequence by a sarcosine spacer (usually Sar5). This can be done during Fmoc solid phase synthesis or post-synthetically (after cyclisation with TBMB and purification) if the N-terminal amino group is unique to the peptide. Fluoresceination can also be performed on the C-terminus, usually on a Lysine introduced as the first C-terminal residue, which is then separated from the bicycle core sequence by a sarcosine spacer (usually Sar6). Thus, N-terminal tracers can have a molecular format described as Fluo-Gly-Sar5-A(BicycleCoreSequence), and (BicycleCoreSequence)-A-Sar6-K(Fluo) for a C-terminally fluoresceinated construct. Fluorescent tracers used in the Examples are A-(17-69)-A-Sar6-K(Fluo), A-(17-69-07)-A-Sar6-K(Fluo), and A-(17-69-12)-A-Sar6-K(Fluo).
(§2) Here, a pre-formed complex of PEX with the fluorescent PEX-binding tracer is titrated with free, non-fluoresceinated bicyclic peptide. Since all 17-69-based peptides are expected to bind at the same site, the titrant will displace the fluorescent tracer from PEX. Dissociation of the complex can be measured quantitatively, and the Kd of the competitor (titrant) to the target protein determined. The advantage of the competition method is that the affinities of non-fluoresceinated bicyclic peptides can be determined accurately and rapidly.
(§3) Subsequently, the non-fluorescent competitor bicyclic peptide (usually just the bicycle core sequence) is titrated, such that it displaces the fluorescent tracer from the target protein. The displacement of the tracer is measured and associated with a drop in fluorescence polarisation. The drop in fluorescence polarisation is proportional to the fraction of target protein bound with the non-fluorescent titrant, and thus is a measure of the affinity of titrant to target protein.
The raw data is fit to the analytical solution of the cubic equation that describes the equilibria between fluorescent tracer, titrant, and binding protein. The fit requires the value of the affinity of fluorescent tracer to the target protein, which can be determined separately by direct binding FP experiments (see previous section).
For orientation: In fluorescence polarisation assays a small probe gives low polarisation when free and higher when bound to something large.

A further test has as its target rat/mouse MT1-MMP (Mus musculus, UniProt P53690). As to the kind of experiment: Binding affinity to rat/mouse MT1-MMP, measured as previously described. As to conditions: Binding Affinity (Ki in nM) rat/mouse ki, bicycle peptide-drug conjugates, two values given. How it is done: as §1, §2, §3
The raw data is fit to the analytical solution of the cubic equation that describes the equilibria between fluorescent tracer, titrant, and binding protein. The fit requires the value of the affinity of fluorescent tracer to the target protein, which can be determined separately by direct binding FP experiments (see previous section). The curve fitting was performed using Sigmaplot 12.0 and used an adapted version of the equation described by Zhi-Xin Wang (FEBS Letters 360 (1995) 111-114).
The in vitro binding affinities of the bicycle peptide-drug conjugates prepared above were measured for MT1-MMP as previously described herein.

Where [1] appears, read: Binding Affinity (Ki in nM) Human ki, bicycle peptide-drug conjugates, human MT1-MMP, two values given.
[2] abbreviates: human MT1-MMP, bicycle peptides, read-out: Binding Affinity Ki (h).

Values joined by “and” are separate entries in the source; they are usually repeats but may differ in a detail not shown here. Equal values may be shown once. Read-outs that look alike come from different tables or passages of the source.

Broadly, the Ki is a measure of affinity in units of concentration, obtained from inhibition or displacement. For the compound `CC[C@H](C)[C@@H]([C@@H](CC(=O)N1CCC[C@H]1[C@H](OC)[C@@H](C)C(=O)N[C@H](C)[C@@H](O)c1ccccc1)OC)N(C)C(=O)[C@@H](NC(=O)[C@H](C(C)C)N(C)C(=O)OCc1ccc(NC(=O)[C@H](CCCNC(N)=O)NC(=O)[C@@H](NC(=O)Cn2cc(CCC(=O)N[C@@H](C)C(=O)N[C@H]3CN(C)Cc4cc5cc(c4)CN(C)C[C@@H](C(N)=O)NC(=O)[C@H](C(C)(C)C)NC(=O)[C@H](CC(=O)O)NC(=O)[C@H](Cc4ccc(O)cc4)NC(=O)[C@H](Cc4ccccc4)NC(=O)[C@H](CC(=O)O)NC(=O)[C@H](CCC(=O)O)NC(=O)[C@H](CSC5)NC(=O)[C@@H](C)NC(=O)[C@H](Cc4cccc5ccccc45)NC(=O)[C@H](CCC(=O)O)NC(=O)[C@H](CC(N)=O)NC(=O)[C@@H](C)NC3=O)nn2)C(C)C)cc1)C(C)C` [BT17BDC-62], the Ki was 3.9 nM and 3.3 nM at MT1-MMP hemopexin domain (setting [1]); 2.1 nM and 1.9 nM on rat/mouse MT1-MMP.
Consider `C#CCCC(=O)N[C@H](CC(=O)O)C(=O)N[C@H](CC(=O)O)C(=O)N[C@H](CC(=O)O)C(=O)N(C)CC(=O)N(C)CC(=O)N[C@@H](C)C(=O)N[C@H]1CN(C)Cc2cc3cc(c2)CN(C)C[C@@H](C(N)=O)NC(=O)[C@H](C(C)(C)C)NC(=O)[C@H](CC(=O)O)NC(=O)[C@H](Cc2ccc(O)cc2)NC(=O)[C@H](Cc2ccccc2)NC(=O)[C@H](CC(=O)O)NC(=O)[C@H](CCC(=O)O)NC(=O)[C@H](CSC3)NC(=O)[C@@H](C)NC(=O)[C@H](Cc2cccc3ccccc23)NC(=O)[C@H](CCC(=O)O)NC(=O)[C@H](CC(N)=O)NC(=O)[C@@H](C)NC1=O` [17-69-07-N471, (PYA)-(D-Asp)3-Sar2-A(Dap(Me))(D-Ala)NE(1Nal)(D-Ala)CEDFYD(tBuGly)(Dap(Me))], for which, on MT1-MMP hemopexin domain (setting [2]), the Ki was 4.6 nM.
With `CC[C@H](C)[C@@H]([C@@H](CC(=O)N1CCC[C@H]1[C@H](OC)[C@@H](C)C(=O)N[C@H](C)[C@@H](O)c1ccccc1)OC)N(C)C(=O)[C@@H](NC(=O)[C@H](C(C)C)N(C)C(=O)OCc1ccc(NC(=O)[C@H](CCCNC(N)=O)NC(=O)[C@@H](NC(=O)CCCC(=O)NCCC(=O)N(C)CC(=O)N(C)CC(=O)N(C)CC(=O)N(C)CC(=O)N(C)CC(=O)N(C)CC(=O)N(C)CC(=O)N(C)CC(=O)N(C)CC(=O)N(C)CC(=O)N[C@@H](C)C(=O)N[C@H]2CN(C)Cc3cc4cc(c3)CN(C)C[C@@H](C(N)=O)NC(=O)[C@H](C(C)(C)C)NC(=O)[C@H](CC(=O)O)NC(=O)[C@H](Cc3ccc(O)cc3)NC(=O)[C@H](Cc3ccccc3)NC(=O)[C@H](CC(=O)O)NC(=O)[C@H](CCC(=O)O)NC(=O)[C@H](CSC4)NC(=O)[C@@H](C)NC(=O)[C@H](Cc3cccc4ccccc34)NC(=O)[C@H](CCC(=O)O)NC(=O)[C@H](CC(N)=O)NC(=O)[C@@H](C)NC2=O)C(C)C)cc1)C(C)C` [BT17BDC-68], the Ki on MT1-MMP hemopexin domain (setting [1]) is 2.9 nM and 3.3 nM; on rat/mouse MT1-MMP it was 1.8 nM and 1.6 nM.
For `C#CCCC(=O)N[C@@H](C)C(=O)N[C@H]1CN(C)Cc2cc3cc(c2)CN(C)C[C@@H](C(N)=O)NC(=O)[C@H](C(C)(C)C)NC(=O)[C@H](CC(=O)O)NC(=O)[C@H](Cc2ccc(O)cc2)NC(=O)[C@H](Cc2ccccc2)NC(=O)[C@H](CC(=O)O)NC(=O)[C@H](CCC(=O)O)NC(=O)[C@H](CSC3)NC(=O)[C@@H](C)NC(=O)[C@H](Cc2cccc3ccccc23)NC(=O)[C@H](CCC(=O)O)NC(=O)[C@H](CC(N)=O)NC(=O)[C@@H](C)NC1=O` [17-69-07-N443, PYA-A(Dap(Me))(D-Ala)NE(1Nal)(D-Ala)CEDFYD(tBuGly)(Dap(Me))], the Ki on MT1-MMP hemopexin domain (setting [2]) was determined as 3.2 nM.
Same read-out and setting: for `C[C@H](NC(=O)CN(C)C(=O)CN(C)C(=O)CN(C)C(=O)CN(C)C(=O)CN(C)C(=O)CN(C)C(=O)CN(C)C(=O)CN(C)C(=O)CN(C)C(=O)CN(C)C(=O)CCN)C(=O)N[C@H]1CN(C)Cc2cc3cc(c2)CN(C)C[C@@H](C(N)=O)NC(=O)[C@H](C(C)(C)C)NC(=O)[C@H](CC(=O)O)NC(=O)[C@H](Cc2ccc(O)cc2)NC(=O)[C@H](Cc2ccccc2)NC(=O)[C@H](CC(=O)O)NC(=O)[C@H](CCC(=O)O)NC(=O)[C@H](CSC3)NC(=O)[C@@H](C)NC(=O)[C@H](Cc2cccc3ccccc23)NC(=O)[C@H](CCC(=O)O)NC(=O)[C@H](CC(N)=O)NC(=O)[C@@H](C)NC1=O` [17-69-07-N451, (B-Ala)-Sar10-A(Dap(Me))(D-Ala)NE(1Nal)(D-Ala)CEDFYD(tBuGly)(Dap(Me))] the value was 3.7 nM.
As usually defined, the Kd is the free concentration of one partner at which half of the binding sites on the other are occupied at equilibrium, for simple one-to-one binding. As for `C#CCCC(=O)NCCC(=O)N(C)CC(=O)N(C)CC(=O)N(C)CC(=O)N(C)CC(=O)N(C)CC(=O)N(C)CC(=O)N(C)CC(=O)N(C)CC(=O)N(C)CC(=O)N(C)CC(=O)N[C@@H](C)C(=O)N[C@H]1CNCc2cc3cc(c2)CSC[C@H](NC(=O)[C@@H](C)NC(=O)[C@H](Cc2cccc4ccccc24)NC(=O)[C@H](CCC(=O)O)NC(=O)[C@H](CC(N)=O)NC(=O)[C@@H](C)NC1=O)C(=O)N[C@@H](CCC(=O)O)C(=O)N[C@@H](CC(=O)O)C(=O)N[C@@H](Cc1ccccc1)C(=O)N[C@@H](Cc1ccc(O)cc1)C(=O)N[C@@H](CC(=O)O)C(=O)N[C@@H](C(C)(C)C)C(=O)N[C@H](C(N)=O)CNC3` [17-69-07-N434, (PYA)-(B-Ala)-Sar10-A(Dap)(D-Ala)NE(1Nal)(D-Ala)CEDFYD(tBuGly)(Dap)], the Kd at MT1-MMP hemopexin domain is 1.52 nM.
Consider `CC(=O)N[C@@H](C)C(=O)N[C@H]1CN(C)Cc2cc3cc(c2)CN(C)C[C@@H](C(N)=O)NC(=O)[C@H](C(C)(C)C)NC(=O)[C@H](CC(=O)O)NC(=O)[C@H](Cc2ccc(O)cc2)NC(=O)[C@H](Cc2ccccc2)NC(=O)[C@H](CC(=O)O)NC(=O)[C@H](CCC(=O)O)NC(=O)[C@H](CSC3)NC(=O)[C@@H](C)NC(=O)[C@H](Cc2cccc3ccccc23)NC(=O)[C@H](CCC(=O)O)NC(=O)[C@H](CC(N)=O)NC(=O)[C@@H](C)NC1=O` [17-69-07-N426, Ac-A(Dap(Me))(D-Ala)NE(1Nal)(D-Ala)CEDFYD(tBuGly)(Dap(Me))], for which, at MT1-MMP hemopexin domain (competition FP, bicycle peptides, read-out: measured affinity (Kd) to MT1-MMP), the Kd is 0.36 nM.
Regarding `CC(=O)N[C@@H](C)C(=O)N[C@H]1CN(C)Cc2cc3cc(c2)CN(C)C[C@H](NC(=O)[C@@H](C)NC(=O)[C@H](Cc2cccc4ccccc24)NC(=O)[C@H](CCC(=O)O)NC(=O)[C@H](CC(N)=O)NC(=O)[C@@H](C)NC1=O)C(=O)N[C@@H](CCC(=O)O)C(=O)N[C@@H](CC(=O)O)C(=O)N[C@@H](Cc1ccccc1)C(=O)N[C@@H](Cc1ccc(O)cc1)C(=O)N[C@@H](CC(=O)O)C(=O)N[C@@H](C(C)(C)C)C(=O)N[C@H](C(N)=O)CN(C)C3` [17-69-07-N474, Ac-A(Dap(Me))(D-Ala)NE(1NaI)(D-Ala)(Dap(Me))EDFYD(tBuGly)(Dap(Me))], at MT1-MMP hemopexin domain, the affinity, expressed as Kd, was 8 nM and the inhibitory constant (Ki) stood at 7.5 nM.
Turning to `C[C@H](N)C(=O)N[C@H]1CN(C)Cc2cc3cc(c2)CN(C)C[C@@H](C(N)=O)NC(=O)[C@H](C(C)(C)C)NC(=O)[C@H](CC(=O)O)NC(=O)[C@H](Cc2ccc(O)cc2)NC(=O)[C@H](Cc2ccccc2)NC(=O)[C@H](CC(=O)O)NC(=O)[C@H](CCC(=O)O)NC(=O)[C@H](CSC3)NC(=O)[C@@H](C)NC(=O)[C@H](Cc2cccc3ccccc23)NC(=O)[C@H](CCC(=O)O)NC(=O)[C@H](CC(N)=O)NC(=O)[C@@H](C)NC1=O` [17-69-07-N452, A(Dap(Me))(D-Ala)NE(1Nal)(D-Ala)CEDFYD(tBuGly)(Dap(Me))], the inhibition constant (Ki) on MT1-MMP hemopexin domain (setting [2]) amounted to 4 nM.

For the origin of these results see US11730819B2, “Peptide derivatives having novel linkage structures” (priority 2016, dated 2023).
